{"source": "patent US9896454B2", "about": "“Microbiocidal heterobicyclic derivatives” (Syngenta Participations AG, priority 2014, dated 2018)", "data": [{"molecule": "COc1ccc2ncc(C3=NC(C)(C)C(C)(C)c4c(F)cccc43)cn12", "note": "[E 1]", "values": [{"measurement": "melting point", "value": "120 to 122", "unit": "°C"}]}, {"molecule": "CC1(C)N=C(c2cnc3cccn3c2)c2cccc(F)c2C1(C)C", "note": "[E 2, 5-fluoro-3,3,4,4-tetramethyl-1-pyrrolo[1,2-a]pyrimidin-3-yl-isoquinoline]", "values": [{"measurement": "melting point", "value": "130 to 134", "unit": "°C"}]}, {"molecule": "CC1(C)N=C(c2cnc3ccc(Br)n3c2)c2cccc(F)c2C1(C)C", "note": "[E 4]", "values": [{"measurement": "melting point", "value": "166 to 167", "unit": "°C"}]}, {"molecule": "CC1(C)Cc2c(F)cccc2C(c2cnc3ccnn3c2)=N1", "note": "[E 9]", "values": [{"measurement": "melting point", "value": "159 to 160", "unit": "°C"}]}, {"molecule": "CC1(C)Cc2c(Cl)cccc2C(c2cnc3ccnn3c2)=N1", "note": "[E 10]", "values": [{"measurement": "melting point", "value": 105, "unit": "°C"}]}, {"molecule": "Cc1cc2ncc(C3=NC(C)(C)C(C)(C)c4c(F)cccc43)cn2n1", "note": "[E 12]", "values": [{"measurement": "melting point", "value": "180 to 190", "unit": "°C"}]}, {"molecule": "Cc1nn2cc(C3=NC(C)(C)C(C)(C)c4c(F)cccc43)cnc2c1Br", "note": "[E 13]", "values": [{"measurement": "melting point", "value": "132 to 134", "unit": "°C"}]}, {"molecule": "CC1(C)N=C(c2cnc3c(Br)cnn3c2)c2cccc(F)c2C1(C)C", "note": "[E 14]", "values": [{"measurement": "melting point", "value": "58 to 61", "unit": "°C"}]}, {"molecule": "Cc1cnn2cc(C3=NC(C)(C)C(C)(C)c4c(F)cccc43)cnc12", "note": "[E 15]", "values": [{"measurement": "melting point", "value": "126 to 128", "unit": "°C"}]}, {"molecule": "CC1(C)N=C(c2cnc3c(C#N)cnn3c2)c2cccc(F)c2C1(C)C", "note": "[E 16]", "values": [{"measurement": "melting point", "value": "179 to 182", "unit": "°C"}]}, {"molecule": "CC1(C)Cc2c(F)cccc2C(c2cnc3c(Br)cnn3c2)=N1", "note": "[E 17, 1-(3-bromopyrazolo[1,5-a]pyrimidin-6-yl)-5-fluoro-3,3-dimethyl-4H-isoquinoline]", "values": [{"measurement": "melting point", "value": "121 to 123", "unit": "°C"}]}, {"molecule": "CC1(C)N=C(c2cnc3c(Br)cnn3c2)c2cccc(F)c2C1=O", "note": "[E 19, 1-(3-bromopyrazolo[1,5-a]pyrimidin-6-yl)-5-fluoro-3,3-dimethyl-isoquinolin-4-one]", "values": [{"measurement": "melting point", "value": "201 to 203", "unit": "°C"}]}, {"molecule": "CSc1nn2cc(C3=NC(C)(C)C(C)(C)c4c(F)cccc43)cnc2c1C#N", "note": "[E 20]", "values": [{"measurement": "melting point", "value": "112 to 114", "unit": "°C"}]}, {"molecule": "CC1(C)N=C(c2cnc3c(Br)cnn3c2)c2cccc(F)c2C1(F)F", "note": "[E 21, 1-(3-bromopyrazolo[1,5-a]pyrimidin-6-yl)-4,4,5-trifluoro-3,3-dimethyl-isoquinoline]", "values": [{"measurement": "melting point", "value": "164 to 166", "unit": "°C"}]}, {"molecule": "Cc1cnn2cc(C3=NC(C)(C)C(F)(F)c4c(F)cccc43)cnc12", "note": "[E 22]", "values": [{"measurement": "melting point", "value": "135 to 138", "unit": "°C"}]}, {"molecule": "Cc1nn2cc(C3=NC(C)(C)C(C)(C)c4c(F)cccc43)cnc2c1C#N", "note": "[E 23]", "values": [{"measurement": "melting point", "value": "176 to 178", "unit": "°C"}]}, {"molecule": "CC1(C)N=C(c2cnc3c(C#N)cnn3c2)c2cccc(F)c2C1(F)F", "note": "[E 24, 6-(4,4,5-trifluoro-3,3-dimethyl-1-isoquinolyl)pyrazolo[1,5-a]pyrimidine-3-carbonitrile]", "values": [{"measurement": "melting point", "value": "215 to 217", "unit": "°C"}]}, {"molecule": "Cc1nn2cc(C3=NC(C)(C)C(C)(C)c4c(F)cccc43)cnc2c1C", "note": "[E 25]", "values": [{"measurement": "melting point", "value": "136 to 139", "unit": "°C"}]}, {"molecule": "CC1(C)N=C(c2cnc3c(F)cnn3c2)c2cccc(F)c2C1(C)C", "note": "[E 26]", "values": [{"measurement": "melting point", "value": "198 to 200", "unit": "°C"}]}, {"molecule": "CC1(C)N=C(c2cnc3nccn3c2)c2cccc(F)c2C1(C)C", "note": "[E 27]", "values": [{"measurement": "melting point", "value": "240 to 242", "unit": "°C"}]}, {"molecule": "CC1(C)Cc2c(F)cccc2C(c2cnc3nccn3c2)=N1", "note": "[E 28]", "values": [{"measurement": "melting point", "value": "227 to 229", "unit": "°C"}]}, {"molecule": "Cc1cccc2c1CC(C)(C)N=C2c1cnc2nccn2c1", "note": "[E 30]", "values": [{"measurement": "melting point", "value": "157 to 158", "unit": "°C"}]}, {"molecule": "CC1(C)N=C(c2cnc3nc(Br)cn3c2)c2cccc(F)c2C1(C)C", "note": "[E 31]", "values": [{"measurement": "melting point", "value": "134 to 136", "unit": "°C"}]}, {"molecule": "CC1(C)N=C(c2cnc3c(Br)cc(Br)n3c2)c2cccc(F)c2C1(C)C", "note": "[E 39]", "values": [{"measurement": "melting point", "value": "141 to 143", "unit": "°C"}]}]}
